Literature values, collected in US6576617B2, “Direct action anti-mycotic” (International Fiber Corporation, priority 1999, dated 2003).

Experiments:
[1] = test system: mold, yeast, and fungal growth; settings: agar medium
[2] = test system: mold, yeast, or fungus growth; settings: non-liquid foods for human consumption; conventional natamycin

C[C@@H]1C/C=C/C=C/C=C/C=C/[C@H](O[C@@H]2O[C@H](C)[C@@H](O)[C@H](N)[C@@H]2O)C[C@@H]2O[C@](O)(C[C@@H](O)C[C@H]3O[C@@H]3/C=C/C(=O)O1)C[C@H](O)[C@H]2C(=O)O [natamycin]
concentration with anti-mycotic activity [1]: ≥ 1 ppm
concentration necessary for effective mold, yeast, and fungus control [2]: greater than 5 ppm
